US8778871B2 (Takeda Pharmaceutical Company Limited, priority 2004, dated 2014)
Non-standard residues stand in square brackets, D forms with d. *: point of attachment. Phe(4-F) = N[C@@H](Cc1ccc(F)cc1)C(=O)O; Arg(Me) = CNC(=N)NCCC[C@H](N)C(=O)O; Butyryl = CCCC(=O)*; Bz = O=C(c1ccccc1)*; azaGly = NNC(=O)O

How the values were obtained:
[1] = molecular target: T1, hOT7T175 (Homo sapiens, UniProt Q969F8, L364H); format: cell-based; details: hOT7T175/CHO, FLIPR, evaluation for 40 seconds after initiation of the reaction
T1 construct: expressed in transfected cells
T1 sequence (Q969F8 whole entry L364H): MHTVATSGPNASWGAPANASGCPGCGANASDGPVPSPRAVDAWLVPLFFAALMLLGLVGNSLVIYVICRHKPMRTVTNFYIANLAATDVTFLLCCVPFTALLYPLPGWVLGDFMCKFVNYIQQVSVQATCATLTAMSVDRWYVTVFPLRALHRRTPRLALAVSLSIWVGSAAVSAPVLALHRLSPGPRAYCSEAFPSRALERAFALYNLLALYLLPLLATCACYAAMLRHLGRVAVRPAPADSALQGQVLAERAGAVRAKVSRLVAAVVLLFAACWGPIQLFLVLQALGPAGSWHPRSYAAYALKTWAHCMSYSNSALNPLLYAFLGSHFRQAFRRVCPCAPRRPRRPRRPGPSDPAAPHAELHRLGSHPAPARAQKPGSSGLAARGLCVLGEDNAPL
Description: The intracellular Ca ion level-increasing activity was measured using FLIPR as in TEST EXAMPLE 2.

[2] = Blood testosterone level decreasing effect in mature male rat (2 mM peptide solution, ALZET osmotic pump); format: in vivo; details: 2 mM peptide solution in distilled water, ALZET osmotic pump s.c., 6 days, Tables 28 and 29
Description: (§1) This peptide solution was filled in 5 ALZET osmotic pumps (Model 2001, 0.2 ml in volume, release rate: 0.001 ml/hr, DURECT Corporation). The ALZET pumps filled with the peptide solution were implanted subcutaneously in 5 CD(SD)IGS male rats of 9 weeks old after birth (Charles River Japan, Inc.) on the back under ether anesthesia by one pump for one animal. For negative control, distilled water (Otsuka Pharmaceutical Co., Ltd.) was filled in 5 ALZET osmotic pumps, which were similarly implanted in 5 male CD(SD)IGS rats (Charles River Japan, Inc.), respectively. These pump-implanted rats were fed for 6 days under normal feeding conditions. After weighing, the animal was decapitated to collect blood. After 0.03 ml/ml blood of aprotinin solution (Trasylol, Bayer) containing 0.1 mg/ml EDTA.2Na was added to blood, the mixture was centrifuged at 1,800 G for 25 minutes to isolate/recover plasma. From the plasma obtained, 0.05 ml was applied to radioimmunoassay (DPC.Total Testosterone Kit, Diagnostic Products Corporation) to measure the plasma testosterone level of each rat. The value below the limit of measurement (0.04 ng/ml of plasma level) in radioimmunoassay was treated as 0. A mean value of the testosterone levels from 5 rats receiving the peptide was calculated and a relative value (percent) of the mean value to a mean value from 5 rats receiving distilled water.

[3] = molecular target: T2, hOT7T175 (Homo sapiens, UniProt Q969F8); assay: Intracellular Ca ion level-increasing activity using FLIPR (180 seconds; specific activity to Metastin (1-54)); format: cell-based; details: hOT7T175/CHO, change in intracellular calcium ion level for 180 seconds, Tables 21-23
T2 construct: expressed in transfected cells
T2 sequence (Q969F8 whole entry L364H): as above

[4] = Blood testosterone level decreasing effect in mature male rat (0.1 mM peptide solution); format: in vivo
Description: as §1
In a manner similar to TEST EXAMPLE 14, evaluation was made using 0.1 mM peptide solution and a part of the results obtained are shown in TABLE 30.

[5] = Action of reducing testosterone level in blood in mature male rat (1 mM peptide in 50% DMSO, ALZET osmotic pump); format: in vivo; details: 1 mM peptide in 50% DMSO aqueous solution, ALZET osmotic pump s.c., six days
Description: The peptide was encapsulated in five ALZET osmotic pump (Model 2001, 0.2 ml of volume, releasing rate 0.001 ml/hr, DURECT Corporation). The ALZET pumps encapsulated with the peptide solution were implanted to dorsal subcutaneous of five male CD (SD) IGS rat at nine weeks age (Charles River Japan, Inc.) anesthesized with ether for one pump to one rat. Separately, for negative controls, the ALZET osmotic pumps encapsulated with distilled water were implanted to five male CD (SD) IGS rat (Charles River Japan, Inc.) The rats were bred for six days under the normal conditions. After weighing, blood was collected by decapitation. To 1 ml of blood, 0.03 ml of aprotinin (Trasylol, Byer) solution containing 0.1 g/ml EDTA 2Na was added. The plasma was isolated by centrifugation at 1,800×g for 25 minutes and collected. The thus obtained plasma, 0.05 ml was effected by radioimmunoassay. (DPC Total Testosterone Kit, Diagnostic Products Corporation) to measure testosterone level in blood of each rat. The value beneath measuring limit of radioimmunoassay (0.04 ng/ml as concentration of plasma) was treated as zero. The mean values for testosterone level of five rats, to which the peptide was given, was calculated and the relative value (percentage) for the mean values of testosterone level of five rats, to which distilled watrer was given, was estimated.

Row | Substance | Specific Act. (EC50/MS10 EC50) [1] | Teststerone level in Blood [2] [%] | intracellular Ca ion level-increasing activity [specific activity to Metastin (1-54)] [3] | Teststerone level in Blood [4] [%] | Testosterone level in Blood [5] [%]
1 | 3-Phenylpropionyl-Asn-Thr-Phe-AzaGly-Leu-Arg(Me)-Trp-NH2 [Compound No. 505] | 0.7 | 40 | 20 |  | 
2 | D-Dap-Acp-D-Tyr-D-Trp-Asn-Thr-Phe-AzaGly-Leu-Arg(Me)-Trp-NH2 [Compound No. 552] | 2.3 |  |  | 21 | 
3 | 3-Phenylpropionyl-Asn-Hyp-Phe-AzaGly-Leu-Arg(Me)-Trp-NH2 [Compound No. 517] | 1.0 | 79 |  |  | 
4 | D-Tyr-D-Pya(4)-Asn-Val-Phe-AzaGly-Leu-Arg(Me)-Trp-NH2 [Compound No. 515] | 1.0 | 2 | 10 |  | 
5 | Ac-D-Arg-Acp-D-Tyr-D-Trp-Asn-Thr-Phe-AzaGly-Leu-Arg(Me)-Trp-NH2 [Compound No. 551] | 1.2 |  |  | 8 | 
6 | 3-(3-Pyridyl)propionyl-Asn-Ser-Phe-AzaGly-Leu-Arg(Me)-Trp-NH2 [Compound No. 386] | 2.9 | 23 | 7 |  | 
7 | 3-Phenylpropionyl-Asn-Ser-Phe(4F)-AzaGly-Leu-Arg(Me)-Trp-NH2 [Compound No. 508] | 1.0 | 9 | 10 |  | 
8 | Bz-[dY][dW]NTF[azaGly]L[Arg(Me)]W-NH2 [Compound No. 565] | 0.6 |  |  | 80 | 
9 | 4-Pyridinecarbonyl-Phe-AzaGly-Leu-Arg(Me)-Trp-NH2 [Compound No. 436] | 1.4 | 35 | 5 |  | 
10 | Butyryl-[dY][dW]NTF[azaGly]L[Arg(Me)]W-NH2 [Compound No. 567] | 0.8 |  |  | 86 | 
11 | D-Tyr-D-Pya(4)-Asn-Ser-Cha-Gly-Leu-Arg(Me)-Trp-NH2 [Compound No. 496] | 0.7 | 3 | 5 |  | 
12 | Arg-Acp-D-Tyr-D-Pya(4)-Asn-Ser-Phe-AzaGly-Leu-Arg(Me)-Trp-NH2 [Compound No. 538] | 3.3 |  |  | 45 | 
13 | Cyclopropanecarbonyl-D-Tyr-D-Trp-Asn-Thr-Phe-AzaGly-Leu-Arg(Me)-Trp-NH2 [Compound No. 566] | 0.8 |  |  | 89 | 
14 | Bz-NS[Phe(4-F)][azaGly]L[Arg(Me)]W-NH2 [Compound No. 545] | 1.1 |  |  | 37 | 2
15 | Ac-[dY][dW]NSF[azaGly]L[Arg(Me)]W-NH2 [Compound No. 558] | 0.4 |  |  | 2 | 
16 | D-Tyr-D-Pya(4)-Ala-Ser-Phe-AzaGly-Leu-Arg(Me)-Trp-NH2 [Compound No. 492] | 1.1 | 65 | 5 |  | 
17 | D-Nle-Acp-D-Tyr-D-Trp-Asn-Thr-Phe-AzaGly-Leu-Arg(Me)-Trp-NH2 [Compound No. 553] | 1.9 |  |  | 39 | 
